One data set has as its system S. mutans UA159. The data set is described as follows: Planktonic growth, S. mutans UA159 (OD470). It is filed as cell-based, Streptococcus mutans. How it is done: (§1) The bacterial strains, S. mutans UA159, S. gordonii DL1, and S. sanguinis SK36 were inoculated statically at 37° C. under 5% CO2 in Todd Hewitt Broth (THB) for 24 h. The cultures were then diluted with fresh THB (1:5) and reinoculated until optical density at 470 nm (OD470) reached 1. The optical density was read using BioTek 800TS microplate reader at 470 nm for bacterial growth and 562 nm for biofilm stained with crystal violet. Data was plotted in Graphpad Prism9.
(§2) S. mutans, S. gordonii, and S. sanguinis growth assays. Effects of compounds on S. mutans and commensal bacterial growth were evaluated using the growth assay as described^69. S. mutans UA159, S. gordonii DL1, S. sanguinis SK36, cultures were grown for 24 h under 5% CO2 at 37° C. These cultures were then reinoculated with fresh THB (1:5) until OD470=1 when the bacteria were ready to be used. Different concentrations of the inhibitor were assayed in chemically defined media (CDM) with 1% of the bacteria, 1% sucrose and 1% DMSO in 96 well plates. The 96 well plates were incubated under 5% CO2 at 37° C. for 16 h. Growth of the bacteria was read after 16 h at OD470. Each assay was carried out at least in triplicate.
(§3) All bacterial strains (S. mutans UA159, S. gordonii DL1, and S. sanguinis SK36) were inoculated statically at 37° C. under 5% CO2 environment in Todd Hewitt Broth (THB) for 24 h^[61]. The cultures were then diluted with fresh THB (1:5) and reinoculated until the optical density at 470 nm reaches 1. The optical density was read using BioTek 800 TS absorbance reader at 470 nm for bacterial growth and 562 nm for biofilm stained with crystal violet. Data was plotted in Prism 10.0.2.
as §2, with “Effects” for “S. mutans, S. gordonii, and S. sanguinis growth assays. Effects”, “PEHA5, PEHA6, HA5 or HA6” for “compounds”, “described^[62].” for “described^69.”, “PEHA5, PEHA6, HA5 or HA6” for “inhibitor”, “CDM” for “chemically defined media (CDM)”

A further data set deals with S. gordonii DL1. The data set is described as follows: Planktonic growth, S. gordonii DL1 (OD470). It is filed as cell-based, Streptococcus gordonii. How it is done: as §1, §2, §3
as §2, with “Effects” for “S. mutans, S. gordonii, and S. sanguinis growth assays. Effects”, “PEHA5, PEHA6, HA5 or HA6” for “compounds”, “described^[62].” for “described^69.”, “PEHA5, PEHA6, HA5 or HA6” for “inhibitor”, “CDM” for “chemically defined media (CDM)”

Data set [1] in a line: Body weight of animals, HEBI / HA5 study. Format: in vivo, Fischer 344 rats. The conditions noted are these: for Weight: 100 μM (NaF 250 ppm), 4 weeks. The method, then:
Rat model of dental caries. In vivo studies of colonization and virulence of S. mutans were evaluated using a previously reported rat model of dental caries^71. Offspring of gnotobiotic Fischer 344 rats used in this experiment were bred and maintained in trexler isolators. Male and female rat pups were removed from isolators at 20 days of age and randomly assigned into 5 treatment groups of 5 rats/group in cages with filter tops. Rats were then infected with S. mutans UA159 strain by oral swabbing daily for four consecutive days with a fresh overnight culture of S. mutans UA159. Rats were provided with caries promoting Teklad Diet 305 containing […] (Harlan Laboratories, Inc., Indianapolis, IN) and sterile drinking water ad libitum. Oral swabs were taken 5 days post-infection and plated on Todd Hewitt (TH) agar plates and incubated at 37° C. in an environment of 5% CO2 in the air to confirm colonization. Rats were weighed at weaning and at the termination of the experiment. One-week post-infection, the molars of the rats were treated topically twice daily for 4 weeks with the test compounds using camel-hair brushes. […] Each sample was serially diluted, plated on blood agar plates (BAP) and mitis-salivarius (MS) agar plates and incubated in an environment of 5% CO2 at 37° C. to quantify the level of total bacteria and S. mutans present in the plaque. […] After drying, the mandibles were sectioned and scored for caries activity using the Keyes method^68. Caries scores were recorded for the buccal, sulcal and proximal molar surfaces individually so that differences among the surfaces can be distinguished. Statistical significance in the mean caries scores, colony-forming units (CFUs)/mandible and body weights between groups of rats were determined by one-way analysis of variance (ANOVA) with the Tukey-Kramer multiple comparison test using the InStat program (Graphpad Software, San Diego, CA). […]

Structures are written as SMILES. Entries after “also recorded” stand apart in the source; their conditions may differ.

Turning to `O=C1/C(=C/c2cc(O)c(O)cc2O)Oc2ccccc21` [HA5, 2-[(2′,4′,5′-Trihydroxyphenyl)methylidene]-2,3-dihydro-1-benzofuran-3-one], the “planktonic growth of S. mutans” value in the data set with S. mutans UA159 (25 μM) is “did not affect the planktonic growth”; in the data set with S. mutans UA159 (50 μM), “did not inhibit the planktonic growth; also recorded: no effect on growth; also recorded: did not inhibit the growth significantly”. The “growth of S. mutans” value with S. mutans UA159 (50 μM and 100 μM) is on record as “did not inhibit S. mutans growth”. Further, the “planktonic growth of S. gordonii” value in the data set on S. gordonii DL1 (25 μM) is given as “did not affect the planktonic growth”. The “growth of S. gordonii” value with S. gordonii DL1 (50 μM and 100 μM (100 μM)) is “did not inhibit the growth; also recorded: does not inhibit the growth”; with S. gordonii DL1 (at biofilm inhibiting doses), “without affecting the growth”. Besides, the “dose without growth inhibition of commensals (100 μM) relative to biofilm IC50” value in the data set on S. gordonii DL1 (DL1) is given as 14 fold. In data set [1], this compound yielded a Weight of 137 ± 13 g. The “weight loss” value in data set [1] (4-week treatment, 100 μM) was “did not experience any weight loss”.

For `O=C1/C(=C/c2cc(O)c(O)c(O)c2)Oc2ccccc21` [HA6, 2-[(3′,4′,5′-Trihydroxyphenyl)methylidene]-2,3-dihydro-1-benzofuran-3-one], the “viability of S. mutans” value in the data set on S. mutans UA159 (25 μM and 50 μM) is given as “did not inhibit S. mutans viability”. In addition, in the data set on S. mutans UA159 (50 μM), the “planktonic growth of S. mutans” value is listed as “did not inhibit the planktonic growth; also recorded: no effect on growth; also recorded: inhibited the planktonic growth slightly”. Further, in the data set on S. gordonii DL1 (25 μM and 50 μM), the “growth inhibition of S. gordonii” value was “about 10%”. In addition, the “growth of S. gordonii” value in the data set on S. gordonii DL1 (at biofilm inhibiting doses) is listed as “without affecting the growth”.

`[F-].[Na+]` [NaF, reference compound]: the Weight in data set [1] is given as 161 ± 13 g.

Values taken from patent US20260315431A1, “NANOMATERIAL ENCAPSULATED BIOFILM INHIBITORS FOR DENTAL CARIES TREATMENT” (THE UAB RESEARCH FOUNDATION, priority 2023, published 2026).
